# Laboratory results: patent US12258571B2, “Methods and compositions for inducible expression of neurotrophic factors” (CEDARS-SINAI MEDICAL CENTER, priority 2018, dated 2025)
# Several values for one entry are separate records, joined by “and”; a condition that tells them apart may be missing. Equal entries are not always repeated.
# Tests used:
# [1] = test system: TRE-Bi promoter; assay: Dual-luciferase assay in nucleofected iNPCs; format: cell-based, human; settings: 24-hour dox treatment; iNPCs nucleofected with pB-RTP-Tet-GDNF/memClover-FLuc, pBase and Ef1-Renilla
# Description: In all experiments, dox solution was maintained in light protection and 4° C. For cell culture, dox (Clontech 631311) was added to culture media at 100 ng/ml. For in vivo work, animals were administered dox (15 μg dox/g weight) every 3-4 days by oral gavage (e.g. 60 μl for a 20 g animal), using a soft-tipped feeding needle (Instech FTP-20-30; Plymouth Meeting, PA) attached to a 1 ml syringe (BD 309659; Franklin Lakes, NJ). To quantitatively assess reporter expression from the TRE-Bi promoter, iNPCs were nucleofected as above, along with an Ef1-Renilla plasmid that constitutively expresses Renilla luciferase for protein normalization. […] To assess the kinetics of the TRE-Bi inducible promoter, firefly luciferase activity was quantified in a live culture of the nucleofected iNPCs grown in the presence of beetle luciferin (FIG. 1F). […] As a clinically-relevant cell product would need to be expanded and banked, the Inventors assessed if the TRE-Bi promoter would remain functionally responsive with an extensive cell expansion and freeze.
# [2] = test system: TRE-Bi promoter; assay: Flow analysis of GFP induction after extensive cell expansion and freeze; format: cell-based, human; settings: 24 hours after adding dox; cells 6 months in culture after nucleofection, two freeze/thaw cycles
# Description: FIG. 5. IPSC-derived NPCs nucleofected with pB-RTP-Tet-GDNF/memClover-FLuc retain their ability to be induced upon the addition of dox. 83% of BF^+ cells were also GFP^+ (P5 Gate) 24 hours after adding dox to cells that were grown in culture for 6 months after nucleofection. Note: Cells were also exposed to two freeze/thaw cycles and were frozen for a total of 10 months during this period.
# To quantitatively assess reporter expression from the TRE-Bi promoter, iNPCs were nucleofected as above, along with an Ef1-Renilla plasmid that constitutively expresses Renilla luciferase for protein normalization. […] To assess the kinetics of the TRE-Bi inducible promoter, firefly luciferase activity was quantified in a live culture of the nucleofected iNPCs grown in the presence of beetle luciferin (FIG. 1F). […] As a clinically-relevant cell product would need to be expanded and banked, the Inventors assessed if the TRE-Bi promoter would remain functionally responsive with an extensive cell expansion and freeze.
# [3] = test system: GDNF; assay: Blinded postmortem GDNF scoring (DAB stain) of transplanted tissue; format: in vivo, NOD-SCID mice; parameters: key: (−) no positive staining; (+) slight staining; (++) moderate staining; (+++) extensive staining; settings: one line per animal; for GDNF Str/CC: striatum/corpus callosum
# Description: In all experiments, dox solution was maintained in light protection and 4° C. For cell culture, dox (Clontech 631311) was added to culture media at 100 ng/ml. For in vivo work, animals were administered dox (15 μg dox/g weight) every 3-4 days by oral gavage (e.g. 60 μl for a 20 g animal), using a soft-tipped feeding needle (Instech FTP-20-30; Plymouth Meeting, PA) attached to a 1 ml syringe (BD 309659; Franklin Lakes, NJ). Nucleofected iNPCs, which underwent two rounds of FACS for BFP, were transplanted into the striatum (41 of cells at 100,000 cells/μ1 into each hemisphere) of 6-month old NOD-SCID mice (Nod.cb17-Prkdc^scid/J, Jackson Lab #1303; Bar Harbor, ME). Three days before transplantation, a subset of cells was treated with dox. For transplantation, cells were dissociated and diluted to a final concentration of 100,000 cells/μl in conditioned media, and maintained on ice. Animals were anesthetized with isoflurane and placed in a stereotaxic frame. Cells were injected bilaterally relative to bregma at 0.7 mm rostral and +/−2.0 mm lateral. A 5 μl Hamilton microsyringe backfilled with PBS was loaded with 2 μl of cell solution and inserted to a depth of −4.00 mm. The microsyringe was then raised to −3.50 mm and the cell solution was injected at 1 μl/min. After cell injection, the microsyringe was raised to −3.00 mm, held for 2 minutes and slowly withdrawn. Animals were checked daily. Immunostained sections were photographed using a Leica DM200 LED microscope. Images were scored based on stain intensity of DAB GDNF stain by an observer blinded to the experiment conditions (dox vs no dox). Finally, DAB staining, which provides a high sensitivity of protein detection and has effectively tracked human GDNF-expressing NPC transplants, was used to determine the levels and location of GDNF expression.
# [4] = animals that ended trial OFF dox (dox withdrawn)
# [5] = animals that ended trial ON dox
structure (smiles),measurement,setting,value
"C[C@H]1c2cccc(O)c2C(=O)C2=C(O)[C@]3(O)C(=O)C(C(N)=O)=C(O)[C@@H](N(C)C)[C@@H]3[C@@H](O)[C@@H]21 [dox, doxycycline]",increase in firefly luciferase activity (normalized to Renilla),[1],~1300 fold
same,BFP+ cells induced to express GFP,[2],83%
same,GDNF Meninges,[3]; [4],−
same,GDNF Str/CC,[3]; [4],−
same,GDNF Meninges,[3]; [5],+++ and − (3×) and + (2×) and ++
same,GDNF Str/CC,[3]; [5],− (3×) and ++ (3×) and +
